{(RXR)4XB} = cell-penetrating peptide (RXR)4XB; {Ac} = acetyl (COCH3) cap
Experiments:
Assay type in all cases: cell-based, Pseudomonas aeruginosa
[1] = test system: P. aeruginosa PAO1; assay: MIC of Ampicillin as a function of AmpR PPMO and PMBN concentration
Description: An AmpR PPMO combined with PMBN restores activity of Ampicillin in P. aeruginosa PAO1.
The ability to use PPMOs as adjunctive therapeutics to restore antibiotic sensitivity to existing drugs could be an intriguing way to explore treatment of multidrug-resistant pathogens that are increasingly being found in chronically infected patients. Frequently encountered resistance genes (β-lactamases, efflux pumps) were targeted. […] An exemplary PPMO, as set forth in Table 5 and illustrated below, was designed to target AmpR in P. aeruginosa, a global transcriptional regulator that regulates β-lactamases such as AmpC. […] Testing the AmpR PPMO in animal models would be a reasonable alternative approach to thinking of antisense as adjuvant therapy with traditional antibiotics.

[2] = test system: P. aeruginosa PAO1 biofilm; assay: Biofilm prevention in MBEC plate (crystal violet); conditions: 5 μM PPMO, 2 μg/mL PMBN, MHII, 20 hours; one-way ANOVA p<0.0001
Description: P. aeruginosa PAO1 (5×10^5 cfu/mL) was grown in MHII media in an MBEC plate for 20 hours either alone or in the presence of 5 μM of the indicated PPMOs, PMBN alone, (RXR)4, or a scrambled PPMO. All conditions contained 2 μg/mL of PMBN unless indicated otherwise. Pegs were processed for crystal violet or visualized by microscopy at 20 hours. […] FIGS. 6B-6D: Spinning Disk confocal microscopy images of 20 hour biofilm treated with (FIG. 6B) No PPMO, (FIG. 6C) 5 μM Scr PPMO #41, (FIG. 6D) 5 μM RpsJ PPMO #14. PAO1 GFP is shown in green and biofilm is shown in red. The biofilm is stained with 200 μg/mL of Concanavalin A, Alexafluor 647 conjugate.
Pseudomonas aeruginosa Biofilm Prevention in MBEC Plate Protocol
• 1. 10 mL of MH is inoculated with a single colony and incubated at 37° C. and ˜250 rpm for about 5 hours. • 2. The sample is centrifuged for 10 minutes at ˜4000 rpm at 4° C., the supernatant is decanted and the pellet resuspended in 10 mL of 150 mM NaCl or PBS. This step is repeated to wash the pellet 3 times. • 3. The sample is resuspended in 10 mL 150 mM NaCl or PBS. • 4. The OD600 of the sample is taken and cfu/mL is calculated. (OD600 usually between 0.65-0.80). • 5. A Bacterial Working Solution (BWS) is made by inoculating 10 mL of MH to 5×10^5 cfu/mL final concentration. • 6. 2 μL/mL of 1 mg/mL stock PMBN is added to the BWS and vortexed 3 times. • 7. 1 mL of BWS is pipetted into each separate Eppendorf tube for each condition that is tested. • 8. An appropriate amount of PPMO is added to each Eppendorf tube and vortexed 3 times. • 9. Outside wells are filled with fresh MH, NaCl, or PBS to keep the outer pegs from drying out. • 10. One column of the MBEC plate is filled with 150 μL per well from each Eppendorf tube (one condition per column). • 11. Pegs are placed into the MBEC plate and the edges covered with a breathable membrane. • 12. The MBEC plate is incubated for 18-20 hours at 37° C. and 110 rpm. Day 2:
1. […] The final OD570 of the 10× dilution of solution should be approximately 0.500 absorbance. […]
2. OD reading: The OD570 for the 96-well plate from step 1e is determined. […]

[3] = test system: P. aeruginosa strains that are multidrug resistant (strain T63547); assay: MIC in multidrug resistant P. aeruginosa strains; conditions: strain T63547 (CF sputum; resistant to extended-spectrum penicillins, cephalosporins, quinolones, carbapenems)
Description: In addition, MIC values of 8 μM or less in P. aeruginosa strains that are multidrug resistant have been achieved. For example, strain T63547 was isolated from the sputum of a CF patient and was resistant to extended-spectrum penicillins, cephalosporins, quinolones and carbapenems. The RpsJ PPMOs and the RpmB PPMO had MIC values of 4 μM. PPMOs also retained activity in mucoid strains of P. aeruginosa (such as strain H27925; CF sputum sample). This is a critically important finding, as mucoid Pseudomonas poses significant treatment challenges.

[4] = test system: panel of P. aeruginosa clinical isolates; assay: MIC of PPMOs with sub-inhibitory concentrations of Colistin (polymyxin E); conditions: Colistin alone at either 1 or 0.5 μg/ml (depending on the strain)
Description: MICs are indicated by color and numerical value as in FIG. 1. All MICs were performed in the presence of 1 μg/mL of Colistin unless otherwise noted (*Strains with an asterisk were tested with 0.5 μg/mL of Colistin).
The overnight culture is plated to determine CFU/ml of starting inoculum. From the overnight culture 4 μl is taken into 10 ml of fresh medium and mixed well to obtain a bacterial working suspension. From the 10 ml, 50 μl is taken into 450 μl of saline. Serial dilutions of 10^−2, 10^−3 and 10^−4 are plated on BA. If Polymyxin B Nonapeptide (PMBN) is to be added, 4 μl/ml of PMBN is added from a stock of 1 mg/ml (in water) to the bacterial suspension for a 4 μg/ml final PMBN concentration.
For every PPMO to be tested, the following is done: 6.8 μl of a 1 mM PPMO stock is added to 413.2 μl of bacterial working suspension and vortexed. 200 μl is placed in the first row (A) of a 96-well plate in duplicate. 100 μl of bacterial working suspension is added to rows B thru F. Row A is mixed well by pipetting 10 times. Then 100 μl from each well of row A is added to the 100 μl of bacterial working suspension in each well of row B and mixed well 10 times. Serial dilutions are continued in the same manner through to row F. Finally, 100 μl in the last row is removed and discarded. […]
The plate is read in a plate reader to measure OD600. […]

CC1(C)S[C@@H]2[C@H](NC(=O)[C@H](N)c3ccccc3)C(=O)N2[C@H]1C(=O)O [Ampicillin, ampicillin, reference compound] showed an MIC ([1]; Pseudomonas aeruginosa, PAO1, in the absence of PPMO) of 512 µg/mL.
For “PPMO #2: LpxC PMO GTTGTTTGATC, 5′ TEG, 3′ (RXR)4XB CPP”, the “prevention of biofilm (crystal violet)” value [2] was “statistically significant prevention of biofilm”.
With “PPMO #5: RpmB PMO CTCTAGACATG, 5′ TEG, 3′ (RXR)4XB CPP” the MIC [3] was 4 µM and the “prevention of biofilm (crystal violet)” value [2] was “statistically significant prevention of biofilm”.
For “PPMO #28: ampR PMO GTCGAACCAAT, 5′ (RXR)4XB CPP, 3′ COCH3 (all phosphorodiamidate morpholino (PMO), 5' {(RXR)4XB}, 3' {Ac})”, the “MIC of Ampicillin” value ([1]; in the presence of 32 μM AmpR PPMO and 4 μg/ml PMBN) was 4 µg/mL.
In the case of polymyxin E [Colistin], the “growth inhibition by Colistin alone” value [4] is reported as “did not inhibit growth”.

— US11293024B2, “Antisense antibacterial compounds and methods” (priority 2014, dated 2022)
